Assay in all cases: NCI tumour cell line growth inhibition, 48 h
Experiment [1] relates to SF-295.
Experiment [2] deals with HCT-15.
Experiment [3] concerns HL-60.
The subject of experiment [4] is RXF 393.
For experiment [5], the system named is A498.
In experiment [6] the test system is OVCAR-5.
Experiment [7] relates to SK-OV-3.
The subject of experiment [8] is NCI-H522.
Experiment [9] concerns SK-MEL-5.
Experiment [10] relates to UACC-257.
Experiment [11] concerns SF-268.
In experiment [12] the test system is UO-31.
For experiment [13], the system named is MOLT-4.
For experiment [14], the system named is M14.
Experiment [15] has as its system NCI-H460.
In experiment [16] the test system is HOP-92.
In experiment [17] the test system is IGROV-1.
In experiment [18] the test system is MDA-MB-231.
The test system of experiment [19] is NCI/ADR-RES.
The test system of experiment [20] is MDA-MB-435.

Each structure is given as a SMILES string.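 Dose response: 5 concentrations. Exposure: 48 h. Format: 96-well plates. Endpoint: linear interpolation; highest concentration if not reached. GI50 is the concentration that inhibits growth by half.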 The source made the active and inactive calls. No stated cut-off is given here; in the data, active = GI50 up to about 1.1 µM and inactive = higher.

As for `N#CCC(=O)NC1C2CC3CC(C2)CC1C3` (stereo unspecified), the GI50 was 16.7 µM (inactive) in [1]; 17.2 µM in [2]; 22.8 µM (inactive) in experiment [3]; 15.8 µM (inactive) in experiment [4]; 16.5 µM (inactive) in experiment [5]; 22.1 µM (inactive) in experiment [6]. The GI50 is 37.4 µM (inactive) in experiment [7]; 17.1 µM (inactive) in experiment [8]; 14.6 µM (inactive) in experiment [9]; 20.9 µM (inactive) in experiment [10]; 17.7 µM (inactive) in experiment [11]; 49 µM (inactive) in experiment [12]. Besides, the GI50 is 34 µM (inactive) in [13]; 19.9 µM (inactive) in [14]; 16.7 µM (inactive) in [15]; 18.3 µM (inactive) in [16]; 25.4 µM (inactive) in [17].

In the case of `O=C(Cn1c(-c2ccccc2)cc2ccccc21)N1CCCC1`, the GI50 was > 100 µM (inactive) in experiment [1]; greater than 100 µM in [2]; > 100 µM (inactive) in experiment [18]; > 100 µM (inactive) in experiment [6]; > 100 µM (inactive) in experiment [7]; > 100 µM (inactive) in experiment [8]. Moreover, the GI50 was 63.2 µM (inactive) in [9]; > 100 µM (inactive) in experiment [10]; > 100 µM (inactive) in [11]; > 100 µM (inactive) in experiment [12]; > 100 µM (inactive) in experiment [13]; > 100 µM (inactive) in [14]. Moreover, the GI50 in [15], in [16], in [19] and in experiment [17] was > 100 µM (inactive) in each case.

As for `Cc1c(C(=O)C(=O)c2ccccc2)c(C)c(C(=O)C(=O)c2ccccc2)c(C)c1C(=O)C(=O)c1ccccc1`, the GI50 is > 100 µM (inactive) in experiment [20]; > 100 µM (inactive) in experiment [1]; greater than 100 µM in [2]; > 100 µM (inactive) in [3]; > 100 µM (inactive) in experiment [18]; > 100 µM (inactive) in experiment [6]. Moreover, the GI50 in [7], in experiment [8], in experiment [9], in experiment [10], in experiment [11] and in experiment [12] was > 100 µM (inactive) throughout. For the same compound, the GI50 in [13], in experiment [14], in experiment [15], in experiment [19] and in [17] was > 100 µM (inactive) each time.

Regarding `O=C1/C(=C/c2ccc(Br)s2)NC(=S)N1c1ccccc1`, the GI50 is 86.3 µM (inactive) in experiment [20]; 43.6 µM (inactive) in experiment [1]; 80.5 µM in experiment [2]; > 100 µM (inactive) in [3]; 34.3 µM (inactive) in experiment [18]; 30.1 µM (inactive) in [4]. In addition, the GI50 in [5] is 51.1 µM (inactive); in experiment [6], > 100 µM (inactive); in experiment [7] it was 45.6 µM (inactive); in experiment [8], 46.7 µM (inactive); in experiment [9], 63.2 µM (inactive); in experiment [10], 65.6 µM (inactive). Also, the GI50 in [11] is > 100 µM (inactive); in experiment [12] it was > 100 µM (inactive); in [13] it was > 100 µM (inactive); in experiment [15], 51.5 µM (inactive); in experiment [16], 25.7 µM (inactive); in [17], 69.3 µM (inactive).

Regarding `Cc1ccc(S(=O)(=O)N/N=C(\c2nc3ccc([N+](=O)[O-])cc3[nH]c2=O)C(O)c2ccc([N+](=O)[O-])cc2)cc1` (stereo unspecified), the GI50 is > 100 µM (inactive) in [1]; 28.2 µM in experiment [2]; 10 µM (inactive) in [3]; > 100 µM (inactive) in experiment [4]; > 100 µM (inactive) in experiment [5]; 67.1 µM (inactive) in experiment [6]. Also, the GI50 was > 100 µM (inactive) in experiment [7]; 10.8 µM (inactive) in experiment [8]; 73.8 µM (inactive) in experiment [9]; > 100 µM (inactive) in experiment [10]; 63.5 µM (inactive) in experiment [11]; 56.9 µM (inactive) in experiment [12]. Further, the GI50 in experiment [13] is 29.4 µM (inactive); in experiment [14], > 100 µM (inactive); in experiment [15], 55.2 µM (inactive); in experiment [16] it was > 100 µM (inactive); in [17], > 100 µM (inactive).

On to `COc1ccc2nc3cc([N+](=O)[O-])ccc3c(Nc3ccc(S(=O)(=O)N=C(N)N)cc3)c2c1`, for which the GI50 is 39.9 µM (inactive) in [20]; 47.1 µM (inactive) in [1]; 36.2 µM in experiment [2]; 11.9 µM (inactive) in [3]; 17.2 µM (inactive) in [18]; 40.1 µM (inactive) in [4]. Moreover, the GI50 is > 100 µM (inactive) in experiment [5]; > 100 µM (inactive) in experiment [6]; 58.5 µM (inactive) in experiment [7]; 18.8 µM (inactive) in experiment [8]; 15.7 µM (inactive) in experiment [9]; 51.2 µM (inactive) in experiment [10]. Also, the GI50 in experiment [11] was 28 µM (inactive); in experiment [12] it was 30.5 µM (inactive); in experiment [13], 2.72 µM (inactive); in experiment [14], 30.5 µM (inactive); in experiment [15], 9.82 µM (inactive); in experiment [16] it was 11.5 µM (inactive).

As for `CCOC(=O)c1ccc(NC(=O)O/N=C(/Cl)CCl)cc1`, the GI50 in experiment [1] is 30.8 µM (inactive); in [2], 5.57 µM; in experiment [3], 24.2 µM (inactive); in experiment [18] it was > 100 µM (inactive); in experiment [5], 15.2 µM (inactive); in experiment [6], 86.7 µM (inactive). The GI50 is 75.3 µM (inactive) in [7]; 31.6 µM (inactive) in [9]; 44.6 µM (inactive) in experiment [10]; 47.1 µM (inactive) in experiment [11]; 45 µM (inactive) in [12]; 33.6 µM (inactive) in experiment [13]. Further, the GI50 in experiment [15] is 47.9 µM (inactive); in experiment [19], 24.5 µM (inactive); in experiment [17] it was > 100 µM (inactive).

`[O-][Cl+3]([O-])([O-])[O-].c1ccc(-c2csc3c4ccccc4c4ccccc4[n+]23)cc1`: the GI50 in experiment [1] is 1.14 µM (inactive); in [2], 23.3 µM; in [3], 1.91 µM (inactive); in experiment [4], 13 µM (inactive); in experiment [5], 14.8 µM (inactive); in experiment [6], 14.3 µM (inactive). Moreover, the GI50 in experiment [7] was 13.9 µM (inactive); in experiment [8] it was 1.67 µM (inactive); in experiment [9], 0.971 µM (active); in [10], 1.08 µM (active); in [11], 2.34 µM (inactive); in [12], 10.7 µM (inactive). Moreover, the GI50 in experiment [13] was 2.18 µM (inactive); in experiment [14], 9.48 µM (inactive); in [15], 2.51 µM (inactive); in [16] it was 4.41 µM (inactive); in [17], 3.95 µM (inactive).

As for `N#C/C(=C/NC(=S)Nc1ccc(S(N)(=O)=O)cc1)C(N)=O`, the GI50 was > 100 µM (inactive) in [20]; > 100 µM (inactive) in experiment [1]; greater than 100 µM in experiment [2]; 43.7 µM (inactive) in experiment [3]; > 100 µM (inactive) in experiment [4]; > 100 µM (inactive) in [5]. Further, the GI50 in experiment [6], in experiment [7], in experiment [8], in experiment [9], in experiment [10] and in experiment [11] was > 100 µM (inactive) each time. The GI50 in [13], in [14], in [15], in [16] and in [17] was > 100 µM (inactive) in each case.

As for `CC1CN=C(N(C(=O)Nc2ccccc2)c2ccccc2)S1` (stereo unspecified), the GI50 was 37.9 µM (inactive) in experiment [1]; 37.2 µM in experiment [2]; 20 µM (inactive) in experiment [3]; 27.4 µM (inactive) in [18]; 10.6 µM (inactive) in experiment [5]; 90.4 µM (inactive) in experiment [6]. Also, the GI50 was > 100 µM (inactive) in experiment [7]; 16.7 µM (inactive) in [9]; 17.1 µM (inactive) in experiment [10]; 20.6 µM (inactive) in experiment [11]; 38.4 µM (inactive) in experiment [12]; 19 µM (inactive) in experiment [13]. Also, the values for the GI50 in experiment [15], in experiment [19] and in [17] were 30.1 µM (inactive), 22 µM (inactive) and 42.6 µM (inactive), respectively.

As for `C=C(C)C1CC=C(C)C(O)([C@@]2(O)C[C@H](C(=C)C)CC=C2C)C1` (stereo partly specified), the GI50 in [1] was 18.9 µM (inactive); in experiment [2], greater than 10 µM; in [3], 23.1 µM (inactive); in [4] it was 13.7 µM (inactive); in experiment [5] it was 23.8 µM (inactive); in [6], 24.5 µM (inactive). Besides, the GI50 in [7] is 27.2 µM (inactive); in [8], 12.6 µM (inactive); in experiment [9], 14.8 µM (inactive); in experiment [10] it was 19.3 µM (inactive); in [11] it was 29.9 µM (inactive); in experiment [12], 28.4 µM (inactive). Further, the GI50 in experiment [13] was 17.8 µM (inactive); in [14], 16.4 µM (inactive); in experiment [15], 18 µM (inactive); in experiment [16], 12.9 µM (inactive); in [17] it was 16.6 µM (inactive).

In the case of `C=C(C)[C@@H]1CC[C@]2(C(=O)O)CC[C@]3(C)[C@H](CCC4[C@@]5(C)CC[C@H](C(=O)/C=C/c6ccc(O)c(O)c6)C(C)(C)[C@@H]5CC[C@]43C)[C@@H]12` (stereo partly specified), the GI50 in experiment [20] is 2.29 µM (inactive); in [1] it was 3.75 µM (inactive); in experiment [2], 3.31 µM; in [3], 2.17 µM (inactive); in experiment [18], 4.36 µM (inactive); in experiment [4], 6 µM (inactive). Further, the GI50 was 12.7 µM (inactive) in experiment [6]; 4.42 µM (inactive) in experiment [7]; 2.85 µM (inactive) in experiment [9]; 2.81 µM (inactive) in [10]; 5.28 µM (inactive) in [11]; 3.58 µM (inactive) in [12]. Besides, the GI50 in [13] is 2.94 µM (inactive); in [14], 3.39 µM (inactive); in [15], 2.81 µM (inactive); in [19] it was 5.46 µM (inactive); in experiment [17], 4.24 µM (inactive).

Source of the values: ChEMBL document CHEMBL1201862, “PubChem BioAssay data set” (2004).
